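Five compound concentrations were applied to cells in 96-well plates for 48 hours; endpoints were derived by simple linear interpolation of the resulting dose-response curve. At the GI50, growth is halved. TGI: concentration producing complete growth inhibition.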
Legend:
Experiment in all cases: inhibition of tumour cell growth, NCI panel, 48 h
786-0 renal = system: 786-0 renal
A498 renal = system: A498 renal
A549 NSCLC = system: A549 NSCLC
ACHN renal = system: ACHN renal
BT-549 breast = system: BT-549 breast
CAKI-1 renal = system: CAKI-1 renal
CCRF-CEM leukemia = system: CCRF-CEM leukemia
COLO 205 colon = system: COLO 205 colon
DU-145 prostate = system: DU-145 prostate
EKVX NSCLC = system: EKVX NSCLC
HCC-2998 colon = system: HCC-2998 colon
HCT-116 colon = system: HCT-116 colon
HCT-15 colon = system: HCT-15 colon
HL-60(TB) leukemia = system: HL-60(TB) leukemia
HOP-62 NSCLC = system: HOP-62 NSCLC
HOP-92 NSCLC = system: HOP-92 NSCLC
HT29 colon = system: HT29 colon
IGROV1 ovarian = system: IGROV1 ovarian
K-562 leukemia = system: K-562 leukemia
KM12 colon = system: KM12 colon
LOX IMVI melanoma = system: LOX IMVI melanoma
M14 melanoma = system: M14 melanoma
MALME-3M melanoma = system: MALME-3M melanoma
MDA-MB-231 breast = system: MDA-MB-231 breast
MDA-MB-435 = system: MDA-MB-435
MOLT-4 leukemia = system: MOLT-4 leukemia
NCI-H23 lung = system: NCI-H23 lung
NCI-H460 lung = system: NCI-H460 lung
NCI-H522 lung = system: NCI-H522 lung
NCI/ADR-RES ovarian = system: NCI/ADR-RES ovarian
OVCAR-4 ovarian = system: OVCAR-4 ovarian
OVCAR-5 ovarian = system: OVCAR-5 ovarian
OVCAR-8 ovarian = system: OVCAR-8 ovarian
PC-3 prostate = system: PC-3 prostate
RPMI-8226 leukemia = system: RPMI-8226 leukemia
RXF 393 renal = system: RXF 393 renal
SF-268 CNS = system: SF-268 CNS
SF-295 CNS = system: SF-295 CNS
SF-539 CNS = system: SF-539 CNS
SK-MEL-2 melanoma = system: SK-MEL-2 melanoma
SK-MEL-28 melanoma = system: SK-MEL-28 melanoma
SK-MEL-5 melanoma = system: SK-MEL-5 melanoma
SK-OV-3 ovarian = system: SK-OV-3 ovarian
SN12C renal = system: SN12C renal
SNB-19 CNS = system: SNB-19 CNS
SNB-75 CNS = system: SNB-75 CNS
SR leukemia = system: SR leukemia
SW-620 colon = system: SW-620 colon
T-47D breast = system: T-47D breast
TK-10 renal = system: TK-10 renal
U251 CNS = system: U251 CNS
UACC-257 melanoma = system: UACC-257 melanoma
UACC-62 melanoma = system: UACC-62 melanoma
UO-31 renal = system: UO-31 renal

SMILES: CCc1cc(OC(=O)N2CCC(N3CCCCC3)CC2)ccc1Nc1cc(-c2ccc(-n3cccn3)cc2)[nH]n1
- GI50 (786-0 renal): 1550 nM
- TGI (786-0 renal): 2980 nM
- GI50 (A498 renal): 1400 nM
- TGI (A498 renal): 2810 nM
- GI50 (A549 NSCLC): 1210 nM
- TGI (A549 NSCLC): 2660 nM
- GI50 (ACHN renal): 1720 nM
- TGI (ACHN renal): 3100 nM
- GI50 (BT-549 breast): 1580 nM
- TGI (BT-549 breast): 2950 nM
- GI50 (CAKI-1 renal): 1550 nM
- TGI (CAKI-1 renal): 3450 nM
- GI50 (CCRF-CEM leukemia): 2950 nM
- TGI (CCRF-CEM leukemia): 21600 nM
- GI50 (COLO 205 colon): 1790 nM
- TGI (COLO 205 colon): 3270 nM
- GI50 (DU-145 prostate): 1910 nM
- TGI (DU-145 prostate): 4170 nM
- GI50 (EKVX NSCLC): 2160 nM
- TGI (EKVX NSCLC): 5860 nM
- GI50 (HCC-2998 colon): 1750 nM
- TGI (HCC-2998 colon): 3330 nM
- GI50 (HCT-116 colon): 1450 nM
- TGI (HCT-116 colon): 2830 nM
- GI50 (HCT-15 colon): 1360 nM
- TGI (HCT-15 colon): 2830 nM
- GI50 (HL-60(TB) leukemia): 1710 nM
- TGI (HL-60(TB) leukemia): 4520 nM
- GI50 (HOP-62 NSCLC): 1840 nM
- TGI (HOP-62 NSCLC): 3700 nM
- GI50 (HOP-92 NSCLC): 1450 nM
- TGI (HOP-92 NSCLC): 3230 nM
- GI50 (HT29 colon): 1270 nM
- TGI (HT29 colon): 2740 nM
- GI50 (IGROV1 ovarian): 1930 nM
- TGI (IGROV1 ovarian): 4040 nM
- GI50 (K-562 leukemia): 1130 nM
- TGI (K-562 leukemia): 5070 nM
- GI50 (KM12 colon): 2110 nM
- TGI (KM12 colon): 4290 nM
- GI50 (LOX IMVI melanoma): 1660 nM
- TGI (LOX IMVI melanoma): 3170 nM
- GI50 (M14 melanoma): 1830 nM
- TGI (M14 melanoma): 3300 nM
- GI50 (MALME-3M melanoma): 1670 nM
- TGI (MALME-3M melanoma): 3210 nM
- GI50 (MDA-MB-231 breast): 1900 nM
- TGI (MDA-MB-231 breast): 3570 nM
- GI50 (MDA-MB-435): 1770 nM
- TGI (MDA-MB-435): 3340 nM
- GI50 (MOLT-4 leukemia): 2160 nM
- TGI (MOLT-4 leukemia): 11000 nM
- GI50 (NCI-H23 lung): 1820 nM
- TGI (NCI-H23 lung): 3900 nM
- GI50 (NCI-H460 lung): 1580 nM
- TGI (NCI-H460 lung): 3160 nM
- GI50 (NCI-H522 lung): 1850 nM
- TGI (NCI-H522 lung): 3510 nM
- GI50 (NCI/ADR-RES ovarian): 2940 nM
- TGI (NCI/ADR-RES ovarian): 9890 nM
- GI50 (OVCAR-4 ovarian): 2220 nM
- TGI (OVCAR-4 ovarian): 5340 nM
- GI50 (OVCAR-5 ovarian): 1830 nM
- TGI (OVCAR-5 ovarian): 4020 nM
- GI50 (OVCAR-8 ovarian): 1800 nM
- TGI (OVCAR-8 ovarian): 3830 nM
- GI50 (PC-3 prostate): 1730 nM
- TGI (PC-3 prostate): 3650 nM
- GI50 (RPMI-8226 leukemia): 2030 nM
- TGI (RPMI-8226 leukemia): 5620 nM
- GI50 (RXF 393 renal): 1450 nM
- TGI (RXF 393 renal): 2890 nM
- GI50 (SF-268 CNS): 1820 nM
- TGI (SF-268 CNS): 3730 nM
- GI50 (SF-295 CNS): 1660 nM
- TGI (SF-295 CNS): 3200 nM
- GI50 (SF-539 CNS): 1730 nM
- TGI (SF-539 CNS): 3270 nM
- GI50 (SK-MEL-2 melanoma): 1830 nM
- TGI (SK-MEL-2 melanoma): 3330 nM
- GI50 (SK-MEL-28 melanoma): 1730 nM
- TGI (SK-MEL-28 melanoma): 3270 nM
- GI50 (SK-MEL-5 melanoma): 1720 nM
- TGI (SK-MEL-5 melanoma): 3120 nM
- GI50 (SK-OV-3 ovarian): 1930 nM
- TGI (SK-OV-3 ovarian): 3470 nM
- GI50 (SN12C renal): 1840 nM
- TGI (SN12C renal): 3710 nM
- GI50 (SNB-19 CNS): 1950 nM
- TGI (SNB-19 CNS): 4110 nM
- GI50 (SNB-75 CNS): 1660 nM
- TGI (SNB-75 CNS): 4220 nM
- GI50 (SR leukemia): 1490 nM
- TGI (SR leukemia): 4600 nM
- GI50 (SW-620 colon): 1860 nM
- TGI (SW-620 colon): 3510 nM
- GI50 (T-47D breast): 1610 nM
- TGI (T-47D breast): 3510 nM
- GI50 (TK-10 renal): 1410 nM
- TGI (TK-10 renal): 3450 nM
- GI50 (U251 CNS): 1580 nM
- TGI (U251 CNS): 2990 nM
- GI50 (UACC-257 melanoma): 1820 nM
- TGI (UACC-257 melanoma): 3440 nM
- GI50 (UACC-62 melanoma): 1920 nM
- TGI (UACC-62 melanoma): 3960 nM
- GI50 (UO-31 renal): 1560 nM
- TGI (UO-31 renal): 3600 nM

Reference: PubChem BioAssay (NCI)
